The values that follow come from patent publication US5030638A, “Method of antiviral enhancement” (priority 1990, dated 1991).

Converted amounts (≈) assume the structure as drawn. Read-outs that look alike come from different tables or passages of the source.

The subject of data set [1] is HIV. As to conditions: cited from earlier work; for HIV inhibitory / antiviral activity: literature.
For data set [2], the system named is glucosidase. As to conditions: Fleet et al.; cited from earlier work.
For data set [3], the system named is visna virus. Kind of data set: Plaque reduction assay, inhibition of visna virus in vitro. As to conditions: Visna-maedi virus, read-out: Antiviral Activity (plaque reduction). The format is cell-based. How it is done: (§1) Sheep choroid plexus(SCP) cells were obtained from American Type Culture Collection (ATCC) catalogue number CRL 1700 and were routinely passaged in vitro in Dulbecco's Modified Eagles (DME) medium supplemented with 20% fetal bovine serum (FBS). SCP cells were passaged once per week at a 1:2 or 1:3 split ratio. Visna was titrated by plaque assay in six-well plates. Virus pools were stored at -70° C.
(§2) SCP cells were cultured in 6-well plates to confluence. Wells were washed two times with serum free Minimal Essential Medium (MEM) to remove FBS. 0.2 ml of virus was added per well in MEM supplemented with 4 mM glutamine and gentamycin. After 1 hour adsorption, the virus was aspirated from each well. The appropriate concentration of each compound in 5 ml of Medium 199 (M-199) supplemented with 2% lamb serum, 4 mM glutamine, 0.5% agarose and gentamycin was added to each well. […] To terminate the test: cultures were fixed in 10% formalin, the agar removed, the monolayers stained with 1% crystal violet and plaques counted. Each compound concentration was run in triplicate. […] 0 is no toxicity observed while 4 is total lysing of the cell monolayer.

In data set [4] the test system is Sheep choroid plexus (SCP) cells. Kind of data set: Toxicity in control wells (without virus) of the plaque reduction assay. It counts as cell-based. The arrangement: key: 0: no toxicity; 4: total cell lysates. As to conditions: graded 0 to 4. As to the method:
as §1, §2
Toxicity graded on 0 to 4 scale 0 = no toxicity, 4 = total cell lysates

Data set [5] deals with almond β-glucosidase. Kind of data set: Beta-glucosidase inhibition assay, pH 7.4. The format is biochemical. As to conditions: for IC50: pH 7.4, read-out: Enzyme Inhibition-IC50, Almond β-Glucosidase pH 7.4; for Inhibition Index (first, head is drawing 3) / Inhibition Index (second, head is drawing 4): ratio of IC50 values; for Inhibition Index (first, head is drawing 3): numerically almond pH 4.8 / almond pH 7.4; for Inhibition Index (second, head is drawing 4): numerically yeast α pH 7.4 / almond β pH 7.4. How it is done:
(§3) Yeast alpha-glucosidase and almond beta-glucosidase activities were measured by a modification of the method of Evans, et al., Phytochemistry 22, 768-770 (1983). The modifications included 1) assay of activities at pH 7.4 in HEPES (N-2-hydroxyethylpiperazine-N'-2-ethanesulfonic acid) buffer, 2) measurement in 96 well microtiter plates and 3) inclusion of 10% DMSO in control and test samples.
(§4) The release of p-nitrophenol from the substrate p-nitrophenylglycoside was measured spectrophotometrically in the presence and absence of test compound. Each assay included a known inhibitor of the enzyme as a standard.
To 100 μl 50 mM HEPES buffer, pH 7.4, in a microtiter plate, add 20 μl test compound in DMSO (DMSO alone in control), 40 μl (0.136 units) beta-glucosidase (Sigma) in HEPES buffer and pre-incubate at room temperature for 15 minutes. Add 40 μl 1.25 mM p-nitrophenyl-beta-D-glucopyranoside in HEPES buffer, as substrate and monitor absorbance change at 405 nm in a Biotek EIA Autoreader. Absorption change was measured at 15 to 25 minutes (reaction is linear for at least 30 minutes). Each sample was tested in triplicate. […] Castanospermine was used as standard inhibitor.

The target of data set [6] is almond β-glucosidase. Kind of data set: Beta-glucosidase inhibition assay, pH 4.8. It counts as biochemical. The conditions noted are these: read-out: Enzyme Inhibition-IC50, Almond β-Glucosidase pH 4.8. How it is done:
as §3, §4
To 100 μl 50 mM sodium citrate buffer, pH 4.8, in a microtiter plate, add 15 μl test compound in DMSO (DMSO alone in control), 20 μl (0.017 units) beta-glucosidase (Sigma) in citrate buffer and pre-incubate at room temperature for 15 minutes. Add 25 μl 2.50 mM p-nitrophenyl-beta-D-glucopyranside in citrate buffer, as substrate. […] Add 50 μl 0.4M NaOH. Read absorption change at 405 nm in a Biotek EIA Autoreader. Each sample was tested in triplicate. […] Castanospermine was used as standard inhibitor.

The target in data set [7] is T1, yeast α-glucosidase (Saccharomyces cerevisiae, UniProt P53341).
T1 construct: purchased Sigma
Kind of data set: Alpha-glucosidase inhibition assay, pH 7.4. The format is biochemical. As to the method: as §3, §4
To 100 μl 50 mM HEPES buffer, pH 7.4, in a microtiter plate, add 20 μl test compound in DMSO (DMSO alone in control), 40 μl (0.013 units) yeast alpha-glucosidase (Sigma) in HEPES buffer and pre-incubate at room temperature for 15 minutes. Add 40 μl 1.25 mM p-nitrophenyl-alpha-D-glucopyranoside (Sigma) in HEPES buffer, as substrate, and monitor absorbance change at 405 nm in Biotek EIA Auto-reader. Absorption change was measured at 15 to 25 minutes (reaction was linear for at least 30 minutes). Each sample was tested in triplicate. […] Deoxynojirimycin was used as standard inhibitor.

In data set [8] the test system is HIV-1, strain HTLV-IIIB. Kind of data set: Reduction of cytopathogenic effect (CPE) in HIV-1 infected CEM cells, MTT assay. It counts as cell-based. As to conditions: for inhibition at 1 µg/mL / inhibition at 3.2 µg/mL / inhibition at 10 µg/mL / inhibition at 32 µg/mL / inhibition at 500 µg/mL / inhibition at 100 µL/mL / IC50: Human immunodeficiency virus 1, IIIB, CCRF-CEM, 216 h; for inhibition at 1 µg/mL: 1.0 μg/ml; for inhibition at 1 µg/mL / inhibition at 3.2 µg/mL / inhibition at 10 µg/mL / inhibition at 32 µg/mL / inhibition at 500 µg/mL / inhibition at 100 µL/mL: read-out: Percent Reduction of CPE; for inhibition at 3.2 µg/mL: 3.2 μg/ml; for inhibition at 10 µg/mL: 10 μg/ml; for inhibition at 32 µg/mL: 32 μg/ml; for inhibition at 500 µg/mL: 500 μg/ml; for inhibition at 100 µL/mL: 100 μl/ml (so in the source); for IC50: read-out: ID50 (median inhibitory dose); for inhibition of HIV-1: in vitro. As to the method: These tests involved plating of susceptible human host cells which are syncytium-sensitive with and without virus in microculture plates, adding various concentrations of the test compound, incubating the plates for 9 days (during which time infected, non-drug treated control cells are largely or totally destroyed by the virus), and then determining the number of remaining viable cells using a colorimetric endpoint.
Tissue culture plates were incubated at 37° C. in a humidified, 5% CO2 atmosphere and observed microscopically for toxicity and/or cytopathogenic effect (CPE). At 2 and 6 days after infection, fresh dilutions of each test article were prepared from the frozen stock, and a 20 μl volume of each dilution (prepared as a 10× concentration was added to the appropriate wells of both infected and uninfected cells.
On the 9th day post-infection, the cells in each well were resuspended and a 100 μl sample of each cell suspension was removed for use in an MTT assay. A 20 μl volume of a 5 mg/ml solution of 3-(4,5-dimethylthiazol-2-yl)-2,5-diphenyltetrazolium bromide (MTT) was added to each 100 μl cell suspension, and the cells were incubated at 37° C. in 5% CO2 for 4 hours. […] A 100 μl volume of a solution of 10% sodium dodecyl sulfate in 0.01N hydrochloric acid wa added to each sample, and the samples were incubated overnight. The absorbance at 590 nm was determined for each sample using a Molecular Devices Vmax microplate reader. This assay detects drug-induced suppression of viral CPE, as well as drug cytotoxicity, by measuring the generation of MTT-formazan by surviving cells.
Assays were done in 96-well tissue culture plates. CEM cells were treated with polybrene at a concentration of 2 μg/ml, and an 80 μl volume of cells (1×10^4 cells) was dispensed into each well. A 100 μl volume of each test article dilution (prepared as a 2× concentration) was added to 5 wells of cells, and the cells were incubated at 37° C. for 1 hour. A frozen culture of HIV-1, strain HTLV-IIIB, was diluted in culture medium to a concentration of 5×10^4 TCID50 per ml, and a 20 μl volume (containing 10^3 TCID50 of virus) was added to 3 of the wells for each test article concentration. […] A 20 μl volume of normal culture medium was added to the remaining wells to allow evaluation of cytotoxicity. Each plate contained 6 wells of untreated, uninfected, cell control samples and 6 wells of untreated, infected, virus control samples. Dideoxycytidine (DDC) and dideoxyadenosine (DDA) were included as positive control compounds.

Data set [9] in a line: Solubility in aqueous solvent (antiviral test). It counts as physicochemical.
For data set [10], the target named is glucosidase I. The conditions noted are these: Schweden et al.; compared to N-methyl- and N-butyl-derivatives; cited from earlier work.
Data set [11] is described as follows: Assay for excretion of metabolites in urine of rats. It counts as in vivo, rat.
For data set [12] the following is noted: rat.
The conditions of data set [13]: in vivo; cited from earlier work.
Data set [14] in a line: Preliminary pharmacokinetic tests in rats, total radioactivity in the blood. The conditions noted are these: rat.
Setting [15] is: HIV-1, CEM cells, reduction of CPE.

T1 sequence (P53341 whole entry): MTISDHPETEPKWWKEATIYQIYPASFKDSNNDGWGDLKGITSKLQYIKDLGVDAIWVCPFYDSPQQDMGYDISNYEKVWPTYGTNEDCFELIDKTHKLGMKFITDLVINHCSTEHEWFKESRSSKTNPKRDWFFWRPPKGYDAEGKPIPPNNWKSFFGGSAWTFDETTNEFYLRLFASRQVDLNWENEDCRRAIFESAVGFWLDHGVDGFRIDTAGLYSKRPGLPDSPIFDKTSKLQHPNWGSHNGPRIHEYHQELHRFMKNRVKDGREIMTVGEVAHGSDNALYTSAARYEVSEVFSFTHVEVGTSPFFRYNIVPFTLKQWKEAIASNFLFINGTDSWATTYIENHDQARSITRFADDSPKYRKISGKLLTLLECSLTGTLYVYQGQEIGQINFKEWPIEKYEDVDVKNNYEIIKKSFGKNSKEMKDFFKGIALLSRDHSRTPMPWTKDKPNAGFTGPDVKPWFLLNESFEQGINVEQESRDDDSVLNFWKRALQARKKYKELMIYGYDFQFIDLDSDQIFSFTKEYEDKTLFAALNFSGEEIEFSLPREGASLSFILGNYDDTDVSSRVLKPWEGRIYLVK

With `OC[C@H]1NC[C@@H](O)[C@@H]1O` (single isomer, unassigned) [D-enantiomer, 1,4-dideoxy-1,4-imino-arabinitol], the “HIV inhibitory / antiviral activity” value in data set [1] is “very little effect on HIV replication”. Also, in [2], the glucosidase inhibition result is on record as “known glucosidase inhibitors”.
For `OC[C@H]1NC[C@@H](O)[C@@H]1O` (single isomer, unassigned) [L-enantiomer, 1,4-dideoxy-1,4-imino-arabinitol], the “HIV inhibitory / antiviral activity” value in [1] is “strong HIV inhibitory activity”. For the same molecule, the glucosidase inhibition result in [2] was “known glucosidase inhibitors”.
As for `CCCCCCN1C[C@H](O)[C@@H](O)[C@H](O)[C@H]1CO` [Example 2, 1,5-(Hexylimino)-1,5-dideoxy-D-glucitol], the inhibition at 1 µM in data set [3] (1 μM) came to 100%. Besides, the inhibition at 10 µM in data set [3] (10 μM) came to 94%. Also, the Toxicity in data set [4] (1 μM) was found to be 2. In addition, the Toxicity in data set [4] (10 μM) is given as 0. In addition, in data set [5], the IC50 came to 4.8 µM; the “Inhibition Index (first, head is drawing 3)” value came to 30; the “Inhibition Index (second, head is drawing 4)” value was determined as 77.3. In [6], the IC50 was found to be 144 µM. In addition, in data set [7] (pH 7.4, read-out: Enzyme Inhibition-IC50, Yeast α-Glucosidase pH 7.4), the IC50 is 371 µM. For the same molecule, in [8] (HIV-1, CEM cells), the “ID50 compared to N-butyl-DNJ” value is “advantageous reduction in ID50”. In [8], the inhibition at 1 µg/mL stood at 0%, the inhibition at 3.2 µg/mL worked out at 15.6%, the inhibition at 10 µg/mL was found to be 65.6% and the inhibition at 32 µg/mL came to 68%. In addition, in data set [8], the inhibition at 500 µg/mL was 147%, the inhibition at 100 µL/mL was found to be 65.1% and the “inhibition of HIV-1” value is listed as “demonstrated to inhibit HIV-1”. Further, the IC50 in [8] (setting [15]) was 7.3 µg/mL (≈ 29.5 µM). Also, the Solubility entry in [9] was “Solubility problem; compound did not completely dissolve”. Also, in data set [10], the “Ki, glucosidase I” value was “greater Ki values than the N-methyl- and N-butyl-derivatives”.
For the molecule `CCCCCCCCCN1C[C@H](O)[C@@H](O)[C@H](O)[C@H]1CO` [Example 3, 1,5(Nonylimino)-1,5-dideoxy-D-glucitol], in data set [3], the inhibition at 10 µM worked out at 69% and the inhibition at 1000 µM was 100%. In addition, in data set [4] (10 μM), the Toxicity stood at 0. Besides, the Toxicity in [4] (1 mM) was found to be 4. In data set [5], the IC50 turned out to be 18 µM; the “Inhibition Index (first, head is drawing 3)” value came out at 10.8; the “Inhibition Index (second, head is drawing 4)” value stood at 14.8. In addition, in data set [6], the IC50 was 196 µM. The same molecule had an IC50 in data set [7] of 267 µM. Further, the “ID50 compared to N-butyl-DNJ” value in data set [8] (HIV-1, CEM cells) is on record as “advantageous reduction in ID50”. Also, in data set [8], the IC50 came out at 6.9 µg/mL (≈ 23.8 µM), the inhibition at 1 µg/mL was found to be 0%, the inhibition at 3.2 µg/mL stood at 25.7% and the inhibition at 10 µg/mL worked out at 62.5%. For the same molecule, in [8], the inhibition at 32 µg/mL stood at 28.9% and the “inhibition of HIV-1” value is listed as “demonstrated to inhibit HIV-1”. Besides, in data set [11], the metabolism result is “metabolized”. In [12], this molecule yielded a t1/2 in vivo of 6.24 h.
Regarding `CCCCN1C[C@H](O)[C@@H](O)[C@H](O)[C@H]1CO` [N-Butyl-DNJ, Nbutyl-deoxynojirimycin, reference compound], the inhibition at 10 µM in data set [3] (10 μM) was 57%. For the same molecule, the inhibition at 1000 µM in data set [3] (1 mM) came to 100%. The molecule further showed a Toxicity in [4] (10 μM) of 0. Also, the Toxicity in data set [4] (1 mM) is reported as 0. In [7], this molecule showed an IC50 of 536 µM. In [8], the inhibition at 10 µg/mL was found to be 42.6%, the inhibition at 32 µg/mL came to 49.8%, the inhibition at 500 µg/mL turned out to be 50.7% and the inhibition at 100 µL/mL was found to be 53.3%. For the same molecule, the IC50 in [8] (setting [15]) was found to be 34 µg/mL (≈ 155 µM). Further, the metabolism result in data set [11] is listed as “not metabolized”. Also, the Solubility result in data set [9] is reported as “Solubility problem; compound did not completely dissolve”. In addition, the “reduction of infectious viral particles” value in data set [1] (Karpas et al., at nontoxic concentrations) is given as “greater than five”. For the same molecule, the “HIV inhibitory / antiviral activity” value in [1] is given as “significant antiviral activity”. In addition, the gastrointestinal side effects result in data set [13] is listed as “gastrointestinal side effects seen”. Also, in data set [14], the t1/2 in vivo is 1.24 h.
